Here are results for six compounds from patent US20140088306A1, “RADIOACTIVE FLUORINE-LABELED QUINOXALINE COMPOUND” (Nihon Medi-Physics Co., Ltd., priority 2012, published 2014).

Like-named read-outs stand apart in the source and are kept apart here.

Series [1] has as its system amyloid plaques. Kind of series: Autoradiography using postmortem brain section of patient with Alzheimer's disease (Example 7). The series is classed as binding, human (Alzheimer's disease patient). The following applies: brain section (temporal lobe) of Alzheimer's disease patient; 0.37 MBq/100 μL, 1 hour. The procedure: A postmortem autopsy brain section (temporal lobe) of a patient with Alzheimer's disease was incubated together with each of [^18F]E3, [^18F]D3, [^18F]E1, and [^18F]E2 (0.37 MBq/100 μL each) at room temperature for 1 hour. The resultant was washed with a 50 volume % ethanol aqueous solution (2 minutes×2) and water (2 minutes×2), and after drying, the section was contacted with BAS imaging plate (from Fujifilm Corporation) for 1.5 hours. The image of autoradiography was obtained using BAS5000 scanner system (from Fujifilm Corporation).
A section adjacent to the brain section used was immunostained in the following manner.
First, a paraffin-embedded brain section of the Alzheimer's disease patient (temporal lobe, 6 μm in thickness) was incubated with xylene (15 minutes×2), ethanol (1 minute×2), a 90 volume % ethanol aqueous solution (1 minute×2), and a 70 volume % ethanol aqueous solution (1 minute×1) in that order for complete deparaffinization, and then washed in water (2.5 minutes×2). Thereafter, the section was subjected to autoclave treatment for 15 minutes in 0.01 mol/L citrate buffer solution (pH 6.0). The resultant was incubated in PBS-Tween20 (5 minutes×2), and a mouse anti-Aβ1-42 primary monoclonal antibody (from Wako Pure Chemical Industries Ltd.) was then added thereto, which was then incubated at room temperature overnight. The resultant was incubated in PBS-Tween20 (2 minutes×3), and a biotin-goat anti-mouse IgG (from Funakoshi Co., Ltd.) was then added thereto, which was then incubated at room temperature for 1 hour. The resultant was incubated in PBS-Tween20 (5 minutes×3), and a streptavidin-peroxidase complex (from Funakoshi Co., Ltd.) was added thereto, which was then incubated at room temperature for 30 minutes. In addition, the resultant was incubated in PBS-Tween20 (2 minutes×3); 3,3′-diaminobenzidine was added thereto, which was then incubated at room temperature for 30 minutes; and after washing with water, the section was observed under a microscope to provide an immunostained image (FIG. 10).

The nature of series [2]: In vivo radioactivity distribution experiment (Example 8). The conditions noted are these: ddY mice, tail vein, SD in parenthesis. How it is done: Through the tail vein of ddY mice (male, 5 week-old) was injected each of a 10 volume % ethanol-containing saline solution of [^18F]E3 (45.4 kBq, 100 μL), a 10 volume % ethanol-containing saline solution of [^18F]D3 (38.2 kBq, 100 μL), a 10 volume % ethanol-containing saline solution of [^18F]E1 (45.1 kBq, 100 μL), and a 10 volume % ethanol-containing saline solution of [^18F]E2 (40.6 kBq, 100 μL). Five mice were used for each group and sacrificed 2, 10, 30, and 60 minutes after administration to remove major organs. The blood and organs were weighed and further measured for radioactivity using a γ counter. The amount of radioactivity per unit mass was measured in each organ to evaluate radioactivity distribution.

In series [3] the target is T1, Aβ1-42 aggregates (Homo sapiens, UniProt P05067).
T1 construct: Aβ1-42 aggregates (Peptide Institute, Inc, Osaka) were dissolved in 0.1 mol/L phosphate-buffered saline; purchased Peptide Institute, Inc., Osaka
T1 sequence (P05067 672-713 limits assumed): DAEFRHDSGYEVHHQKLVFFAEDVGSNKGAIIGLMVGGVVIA
The experiment in a line: [^125I]IMPY binding inhibition experiment (Example 5). The following applies: for binding property to Aβ1-42 aggregates: [^125I]IMPY binding inhibition, result in words. The procedure:
Aβ1-42 aggregates (Peptide Institute, Inc, Osaka) were dissolved in 0.1 mol/L phosphate-buffered saline (hereinafter referred to as PBS) to 0.25 mg/mL and incubated at 37° C. for 42 hours to prepare an Aβ1-42 aggregate PBS solution. This was further diluted 1:100 with PBS to 2.5 μg/mL and used for an assay.
The mixture was filtered through Whatman (R) GF/B filter, and a γ counter was used to measure the radioactivity of the filter. The measured radioactivity values were used to prepare an inhibition curve to calculate IC50. In addition, the following mathematical expression (1):
was used to calculate an inhibition constant (Ki).

Where [4] appears, read: inhibition of [^125I]IMPY binding to Aβ1-42 aggregates.

Turning to “4-(7-(2-[^18F]Fluoroethoxy)quinoxalin-2-yl)-N,N-dimethylaniline [[^18F]E3]”, the “visualization of gray matter / amyloid plaques by autoradiography” value in series [1] is recorded as “amyloid plaques were visualized”. For the same compound, in series [2] (2 min. after), the “Radioactivity Amount, Blood” value was 2.26 (0.21) % injected dose/g; the “Radioactivity Amount, Bone” value is listed as 2.45 (0.43) % injected dose/g; the “Radioactivity Amount, Brain” value is on record as 5.78 (0.60) % injected dose/g; the “Radioactivity Amount, Heart” value is given as 6.12 (0.79) % injected dose/g. Besides, in series [2] (2 min. after), the “Radioactivity Amount, Intestine” value was 3.24 (0.43) % injected dose/g; the “Radioactivity Amount, Kidney” value is reported as 8.65 (0.88) % injected dose/g; the “Radioactivity Amount, Liver” value is reported as 11.9 (1.35) % injected dose/g; the “Radioactivity Amount, Lung” value is on record as 5.74 (0.48) % injected dose/g. In addition, in series [2] (2 min. after), the “Radioactivity Amount, Pancreas” value is 6.82 (0.80) % injected dose/g; the “Radioactivity Amount, Spleen” value is 3.67 (0.40) % injected dose/g; the “Radioactivity Amount, Stomach*” value is given as 1.07 (0.20) % injected dose per organ. For the same compound, in series [2] (10 min. after), the “Radioactivity Amount, Blood” value was 1.91 (0.68) % injected dose/g; the “Radioactivity Amount, Bone” value is recorded as 2.20 (0.09) % injected dose/g; the “Radioactivity Amount, Brain” value is recorded as 3.82 (0.33) % injected dose/g; the “Radioactivity Amount, Heart” value was 3.48 (0.56) % injected dose/g. Moreover, in series [2] (10 min. after), the “Radioactivity Amount, Intestine” value is recorded as 7.95 (1.28) % injected dose/g; the “Radioactivity Amount, Kidney” value is given as 5.19 (0.88) % injected dose/g; the “Radioactivity Amount, Liver” value is listed as 11.7 (0.80) % injected dose/g; the “Radioactivity Amount, Lung” value is given as 4.02 (0.32) % injected dose/g. Besides, in series [2] (10 min. after), the “Radioactivity Amount, Pancreas” value is given as 3.51 (0.37) % injected dose/g; the “Radioactivity Amount, Spleen” value was 2.89 (0.37) % injected dose/g; the “Radioactivity Amount, Stomach*” value is reported as 2.54 (0.88) % injected dose per organ. In series [2] (30 min. after), the “Radioactivity Amount, Blood” value is given as 2.42 (0.17) % injected dose/g; the “Radioactivity Amount, Bone” value was 2.10 (0.39) % injected dose/g; the “Radioactivity Amount, Brain” value was 1.85 (0.09) % injected dose/g; the “Radioactivity Amount, Heart” value is reported as 2.43 (0.12) % injected dose/g. Also, in series [2] (30 min. after), the “Radioactivity Amount, Intestine” value is 16.2 (1.71) % injected dose/g; the “Radioactivity Amount, Kidney” value is given as 3.30 (0.27) % injected dose/g; the “Radioactivity Amount, Liver” value is listed as 7.11 (1.56) % injected dose/g; the “Radioactivity Amount, Lung” value is recorded as 2.80 (0.15) % injected dose/g. Moreover, in series [2] (30 min. after), the “Radioactivity Amount, Pancreas” value is recorded as 2.31 (0.19) % injected dose/g; the “Radioactivity Amount, Spleen” value is on record as 2.31 (0.21) % injected dose/g; the “Radioactivity Amount, Stomach*” value is on record as 2.02 (0.63) % injected dose per organ. For the same compound, in series [2] (60 min. after), the “Radioactivity Amount, Blood” value was 2.38 (0.25) % injected dose/g; the “Radioactivity Amount, Bone” value is listed as 2.02 (0.36) % injected dose/g; the “Radioactivity Amount, Brain” value is recorded as 1.48 (0.07) % injected dose/g; the “Radioactivity Amount, Heart” value is 2.22 (0.08) % injected dose/g. Also, in series [2] (60 min. after), the “Radioactivity Amount, Intestine” value is 17.9 (3.64) % injected dose/g; the “Radioactivity Amount, Kidney” value was 3.51 (1.21) % injected dose/g; the “Radioactivity Amount, Liver” value is given as 5.30 (0.82) % injected dose/g; the “Radioactivity Amount, Lung” value is 2.20 (0.14) % injected dose/g. In addition, in series [2] (60 min. after), the “Radioactivity Amount, Pancreas” value is reported as 1.60 (0.18) % injected dose/g; the “Radioactivity Amount, Spleen” value is given as 1.74 (0.05) % injected dose/g; the “Radioactivity Amount, Stomach*” value is given as 1.42 (0.22) % injected dose per organ.
One may read the Ki as the dissociation constant of the complex between target and ligand, obtained from inhibition or displacement. Higher therefore signals a looser hold on the target. Regarding `CN(C)c1ccc(-c2cnc3cc(OCCF)ccc3n2)cc1` [Compound D3, 4-(6-(2-Fluoroethoxy)quinoxalin-2-yl)-N,N-dimethylaniline], in series [3], the Ki is 0.947 nM and the “binding property to Aβ1-42 aggregates” value is recorded as “sufficiently high binding property”.
As for `Nc1ccc(-c2cnc3ccc(OCCF)cc3n2)cc1` [Compound E1, 4-(7-(2-Fluoroethoxy)quinoxalin-2-yl)aniline], in series [3], the “binding property to Aβ1-42 aggregates” value is “not each confirmed to have a sufficient binding property”. The compound also displayed a Ki in series [3] (setting [4]) of 1180 nM.
The matching figures for `CNc1ccc(-c2cnc3ccc(OCCF)cc3n2)cc1` [Compound E2, 4-(7-(2-Fluoroethoxy)quinoxalin-2-yl)-N-methylaniline]: “not each confirmed to have a sufficient binding property” and 758 nM.
The matching figures for `CN(C)c1ccc(-c2cnc3ccc(OCCF)cc3n2)cc1` [Compound E3, 4-(7-(2-Fluoroethoxy)quinoxalin-2-yl)-N,N-dimethylaniline]: “sufficiently high binding property” and 111 nM.
Take `Nc1ccc(-c2cnc3ccc(OCC[18F])cc3n2)cc1` [[^18F]E1, 4-(7-(2-[^18F]Fluoroethoxy)quinoxalin-2-yl)aniline]: the “visualization of gray matter / amyloid plaques by autoradiography” value in series [1] is given as “did not visualize the gray matter but rather strongly visualized the white matter”. The “Radioactivity Amount, Liver” value is reported as 9.18 (1.45) % injected dose/g in series [2] (2 min. after), 12.1 (1.82) % injected dose/g in series [2] (10 min. after), 8.76 (1.01) % injected dose/g in series [2] (30 min. after) and 6.52 (0.93) % injected dose/g in series [2] (60 min. after).
